Active and inactive are the calls of the source. The calls are words filed in the database; no cut-off is given here.
Legend:
Homo sapiens = species: Homo sapiens; assay: Binding affinity towards GST-tagged Plek2 (unknown origin) at 200 uM measured by isothermal calorimetry (ITC) assay relative to control
COS-7 = assay: Inhibition of Plek2 in African green monkey COS-7 cells overexpressing Plek2 at 10 uM assessed as decrease in lamellipodia formation; format: cell-based; conditions: Chlorocebus aethiops
[1] = Inhibition of Plek2 in Ter119-positive mouse fetal liver erythroid progenitor cells cultured in erythropoietin containing medium assessed as decrease in terminal enucleation of erythroblasts measured by HTS assay; format: tissue-based
[2] = Inhibition of Plek2 in Ter119-positive mouse fetal liver erythroid progenitor cells cultured in erythropoietin containing medium assessed as decrease in cell proliferation measured by HTS assay; format: tissue-based
[3] = Toxicity in Jak2 V617F-konckin induced myeloproliferation in mouse assessed as induction of side effects at 25 mg/kg, ip administered once every two days; format: organism-based; conditions: in vivo, 48 h, time 2 day
[4] = Inhibition of Plek2 in Ter119-negative mouse fetal liver erythroid progenitor cells overexpressing Plek2 cultured in erythropoietin containing medium assessed as decrease in cell proliferation measured by HTS assay; format: tissue-based
Mus musculus [5] = assay: Protection against Jak2 V617F-konckin induced myeloproliferation in mouse assessed as reduction in red blood cell count at 25 mg/kg, ip administered once every two days; format: functional, organism-based; conditions: time 2.0 day
Mus musculus [6] = assay: Protection against Jak2 V617F-konckin induced myeloproliferation in mouse assessed as reduction in extramedullary erythropoiesis at 25 mg/kg, ip administered once every two days; format: functional, organism-based; conditions: time 2.0 day
Bone marrow cell = assay: Inhibition of Plek2 in mouse bone marrow lineage negative cells expressing wild-type Plek2 and treated with erythropoietin at 10 uM assessed as inhibition of Akt phosphorylation measured by western blot analysis; format: cell-based
Mus musculus [7] = assay: Protection against erythropoietin-induced myeloproliferation in wild type mouse assessed as improvement in lung vasculature at 40 mg/kg, ip administered every 2 days for 8 days; format: functional, organism-based; conditions: time 2.0 day
Mus musculus [8] = assay: Protection against erythropoietin-induced myeloproliferation in wild type mouse assessed as reduction in splenomegaly at 40 mg/kg, ip administered every 2 days for 8 days; format: functional, organism-based; conditions: time 2.0 day
Mus musculus [9] = assay: Protection against erythropoietin-induced myeloproliferation in wild type mouse assessed as reduction in leucocytosis at 40 mg/kg, ip administered every 2 days for 8 days; format: functional, organism-based; conditions: time 2.0 day
Mus musculus [10] = assay: Protection against erythropoietin-induced myeloproliferation in wild type mouse assessed as reduction in erythrocytosis in spleen red pulp at 40 mg/kg, ip administered every 2 days for 8 days; format: functional, organism-based; conditions: time 2.0 day
Mus musculus [11] = assay: Protection against Jak2 V617F-konckin induced myeloproliferation in mouse assessed as normalization of white blood cell count at 25 mg/kg, ip administered once every two days; format: functional, organism-based; conditions: time 2.0 day
Mus musculus [12] = assay: Protection against Jak2 V617F-konckin induced myeloproliferation in mouse assessed as reduction in spleen size at 25 mg/kg, ip administered once every two days; format: functional, organism-based; conditions: time 2.0 day
[13] = Acute toxicity in mouse assessed as drug tolerability time at 40 mg/kg, ip administered as single dose; format: organism-based; conditions: in vivo
Mus musculus [14] = assay: Protection against erythropoietin-induced myeloproliferation in wild type mouse assessed as reduction in vascular occlusions at 40 mg/kg, ip administered every 2 days for 8 days; format: functional, organism-based; conditions: time 2.0 day
Mus musculus [15] = assay: Protection against erythropoietin-induced myeloproliferation in wild type mouse assessed as reduction in reticulocytosis at 40 mg/kg, ip administered every 2 days for 8 days; format: functional, organism-based; conditions: time 2.0 day
[16] = Toxicity in wild type mouse assessed as hematologic abnormalities at 40 mg/kg, ip administered every 2 days for 8 days; format: organism-based; conditions: in vivo, 48 h, time 2 day
Jurkat = assay: Effect on Plek2 cell membrane localization in human Jurkat cells overexpressing GFP-Plek2 at 100 nM measured by real-time confocal imaging analysis; format: functional, cell-based
Mus musculus [17] = assay: Protection against Jak2 V617F-konckin induced myeloproliferation in mouse assessed as reduction in vascular occlusions in lung at 25 mg/kg, ip administered once every two days; format: functional, organism-based; conditions: time 2.0 day

For `O=C(c1c[nH]c2ccccc12)C(O)C(c1ccccc1)N1CCN(CCO)CC1` (stereo unspecified), the Activity (Homo sapiens) was “Active”, the inhibition (COS-7) was “Active” and the IC50 [1] was 40 µM. For the same compound, the IC50 [2] was 40 µM.

In the case of `CN1CCN(C(c2ccc(Cl)cc2)C(O)C(=O)c2c[nH]c3ccccc23)CC1` (stereo unspecified), the Activity [3] is reported as “Non-Toxic”, the IC50 [4] is reported as < 10 µM and the Activity (Mus musculus [5]) is reported as “Active”. The Activity (Mus musculus [6]) was “Active”, the inhibition (Bone marrow cell) was “Active” and the Activity (Mus musculus [7]) was “Active”. For the same compound, the Activity (Mus musculus [8]) was “Active”, the Activity (Mus musculus [9]) was “Active” and the Activity (Mus musculus [10]) was “Active”. The Activity (Mus musculus [11]) was “Active”, the Activity (Mus musculus [12]) was “Active” and the Time [13] was 2 days. The Activity (Mus musculus [14]) was “Active”, the Activity (Mus musculus [15]) was “Active” and the Activity [16] was “Non-Toxic”. For the same compound, the Activity (Jurkat) was “Active” and the Activity (Mus musculus [17]) was “Active”.

Source: ChEMBL document CHEMBL5050847, “Targeting pleckstrin-2 for treating cancer” (2020)
